Legend:
LNCaP cells [1] = test: Antiproliferation assay (Alamar Blue), LNCaP cells; assay type: cell-based, human; settings: 3 day treatment, read-out: GI50 LNCaP cell 3days
Description: To determine the effect of lonidamine and analogs thereof on cell proliferation, the antiproliferative activity of these compounds was tested in a multi-well Alamar Blue based assay (at 2 h and 3 days). Cell growth in the presence and absence of the test compound (compounds 1-22) was compared, as measured by a fluorescence plate reader at excitation 550 nm and emission 590 nm (see Biosource International Inc., Tech Application Notes, Use of Alamar Blue in the measurement of Cell Viability and Toxicity, Determining IC50). H460 cells (ATCC HTB-177 ([…]), 4,000 cells/well/200 μl) and LNCap cells (ATCC CRL-1740, 6,000 cells/well/200 μl) were seeded in a 96 well plate in RPMI medium (Invitrogen Corporation, Carlsbad, Calif.). After 24 hours, these plates were divided into 3 groups—Control group, 2 h treatment group and 3 day treatment group. In the 2 h treatment group, after 2 h the cells were rinsed to remove the test compound and incubated for 3 days, followed by staining with AlamarBlue. The cells in the 3 day treatment group were incubated for 3 days, followed by staining with AlamarBlue. In the Control group, AlamarBlue was added to the plate at (i) day 0 and (ii) day 3 and measured to establish the control reading.

LNCaP cells [2] = test: Cell cycle analysis; assay type: cell-based, human; settings: for % G0/G / % G2/M / % S: 24 h
Description: The effect of compound 1 (as described in Example 1 above) on the cell cycle was determined as follows. LNCaP cells (2×10^5 cells/ml/well) were seeded in a 24 well plate. The culture media were removed after 24 h, the cells were trypsinized and centrifuged. The cell pellets were resuspended in 100 μl PBS buffer, after which 300 μl of ice-cold ethanol (96%) added dropwise, and the cells were incubated at 4° C. for at least 24 hr. The cells were centrifuged and the supernatant was discarded. The cell cycle staining reagent (Guava Technologies, Hayward, Calif., USA, 200 μl) was added to each well. The cells were shielded from light and incubated at room temperature for 30 min. The samples were analyzed (Guava PCA-96 instrument, Cytosoft software, Guava Technologies, 25801 Industrial Boulevard, Hayward Calif. 94545-2991, USA) as tabulated below.

mouse prostate = test: Mouse study, 10 days oral, prostate weight; assay type: in vivo; settings: C57B1/6J mice, oral daily for 10 days, 0.2-20 mg/kg
Description: The control mice received an equal amount of the vehicle (carboxymethylcellulose). […] Relative weights of entire prostate and individual lobes were calculated by dividing the corresponding absolute weight by the total weight of the mouse. Relative weights of the entire prostate, the dorsal prostate, and the ventral prostate were calculated by dividing the absolute weight by the total weight of the mouse. Relative weights of the left and right testis were calculated by dividing the corresponding absolute weights by the total weights of the mouse.

CD-1 mice = test: Tolerance study in CD-1 mice; assay type: in vivo, mouse
Text: The toxicological end-points in this study were standard clinical observations such as changes in movement, breathing, food consumption, mortality and decreased body weight.

mouse prostate cells = test: In vivo viability and proliferation of mouse prostate cells (TUNEL, PCNA); settings: mice treated with 20 mg/kg, with respect to vehicle
Description: Prostate cells harvested from mice treated with 20 mg/kg of Compound I were assayed by the TUNEL assay (e.g., see Example 48).

SH rat prostate = test: 5 day systemic administration in male SH rats, prostate; assay type: in vivo; settings: male SH rats, oral daily for 5 days at 50 mg/ml, day 6
Description: The effect of test compounds (lonidamine and lonidamine analogs) on the SH rat prostate was determined as follows. The test compound was orally administered daily for 5 days to male, SH rat, (n=6, 14 weeks old, Charles River Labs) at 50 mg/ml concentrations (as a 0.5% carboxymethylcellulose formulation). The control rats received an equal amount of the vehicle ([…]). Blood samples were collected 2 hours after administration on day 6, for pharmokinetic analysis of the compounds. On day 6 the rats were sacrificed and the entire prostate and the individual lobes (e.g., the ventral, dorso-lateral, and anterior lobes) were removed and weighed to measure absolute weights. Relative weights of prostate and individual lobes were calculated by dividing the absolute weight by the total body weight of the […]. Relative weights of the entire prostate, the dorsal prostate, and the ventral prostate were calculated by dividing the absolute weight by the total weight of the mouse. The histomorphology of the prostate was also analyzed and compared to that of the control or untreated prostate.

O=C(NO)c1nn(Cc2ccc(Cl)cc2Cl)c2ccccc12 [Compound 1]
GI50 (LNCaP cells [1]): 40 µM | effect on the cell cycle (LNCaP cells [2]; 2.5-200 μM): does not have a measurable effect | % G0/G (LNCaP cells [2]; 2.5 μM): 59% | % G2/M (LNCaP cells [2]; 2.5 μM): 27% | % S (LNCaP cells [2]; 2.5 μM): 11% | % G0/G (LNCaP cells [2]; 7.4 μM): 56% | % G2/M (LNCaP cells [2]; 7.4 μM): 26% | % S (LNCaP cells [2]; 7.4 μM): 15% | % G0/G (LNCaP cells [2]; 22.2 μM): 57% | % G2/M (LNCaP cells [2]; 22.2 μM): 25% | % S (LNCaP cells [2]; 22.2 μM): 11% | % G0/G (LNCaP cells [2]; 66.7 μM): 51% | % G2/M (LNCaP cells [2]; 66.7 μM): 24% | % S (LNCaP cells [2]; 66.7 μM): 19% | % G0/G (LNCaP cells [2]; 200 μM): 41% | % G2/M (LNCaP cells [2]; 200 μM): 17% | % S (LNCaP cells [2]; 200 μM): 18% | absolute dorsal prostate weight (FIG. 10) (mouse prostate): dose dependent reduction | absolute ventral prostate weight (FIG. 9) (mouse prostate): dose dependent reduction | absolute whole prostate weight (FIG. 11) (mouse prostate): dose dependent reduction | prostate weight (mouse prostate): dose dependent reduction | relative dorsal prostate weight (FIG. 7) (mouse prostate): dose dependent reduction | relative ventral prostate weight (FIG. 8) (mouse prostate): dose dependent reduction | relative whole prostate weight (FIG. 6) (mouse prostate): dose dependent reduction | tolerated dose (CD-1 mice; CD-1 mice, oral dosing for 5 days): 500 mg/kg/day | therapeutic index compared to lonidamine (CD-1 mice; mice, when used for prostate weight reduction): 10 fold | apoptosis of prostate cells (TUNEL assay) (mouse prostate cells): more apoptotic | cell cycle inhibition (PCNA assay) (mouse prostate cells): greater cell cycle inhibition | Prostate shrinkage (SH rat prostate): −4.8%

Reference: patent US20070015771A1, “Lonidamine analogs” (Threshold pharmaceuticals, Inc., priority 2004, published 2007)
